Target: cAMP-dependent protein kinase catalytic subunit alpha (Rattus norvegicus, UniProt P27791)
Experiment: PKA assay

| IC50 | SMILES |
| --- | --- |
| > 10000 nM | CN(C)CCCn1cc(C2=C(c3c[nH]c4ccccc34)CNC2=O)c2ccccc21 [3-[1-(3-dymethylaminopropyl)-indol-3-yl]-4-(indol-3-yl)-3-pyrrolin-2-one] |
| 2000 nM | CN1CCCC1CCn1cc(C2=C(c3c[nH]c4ccccc34)C(=O)NC2=O)c2ccccc21 (configuration not stated) [3-(1H-indol-3-yl)-4-{1-[2-(1-methylpyrrolidin-2-yl)ethyl]-1H-indol-3-yl}-2,5-dihydro-1H-pyrrole-2,5-dione] |

Reference: BindingDB's records for PubMed 1874734 (Laboratoires Glaxo, 1991)
